In PMC10093836, “Stabilization of the Dimeric State of SARS-CoV-2 Main Protease by GC376 and Nirmatrelvir” (International Journal of Molecular Sciences, 2023):

Experiments:
[1] = test system: cells; set-up: method as in PMID 32841477; details: literature values; cited from earlier work
[2] = test system: Mpro; details: read-out: IC50 for Mpro; literature data; cited from earlier work
[3] = molecular target: SARS-CoV-2 Mpro (Nsp5, 3CLpro) (Severe acute respiratory syndrome coronavirus 2, UniProt P0DTD1); assay: biochemical; assay type: binding; details: for Binding to Mpro (MST), in words: no binding curve produced
[4] = molecular target: SARS-CoV-2 protease; set-up: method as in PMID 34726479, PMID 35233052, PMID 34653812; details: literature; read-out: Inhibition constant (Ki); cited from earlier work

Question: With `CCCCCCNC(=O)n1cc(F)c(=O)[nH]c1=O` [Carmofur] as the compound, how does the EC50 [1] read?
Answer: Its EC50 is 24000 ± 3000 nM.

Question: Which IC50 [2] does the source give for `CC(C)C[C@H](NC(=O)OCc1ccccc1)C(=O)N[C@@H](CC1CCNC1=O)C(O)S(=O)(=O)O` (stereo partly shown) [GC376] here?
Answer: Its IC50 is 190 ± 40 nM.

Question: Which results are given for `Cc1cccc(C)c1OCC(=O)N[C@@H](Cc1ccccc1)[C@@H](O)C[C@H](Cc1ccccc1)NC(=O)[C@H](C(C)C)N1CCCNC1=O` [Lopinavir]?
Answer: Kd [3]: > 200000 nM; Binding to Mpro (MST), in words [3]: do not bind Mpro effectively

Question: For `CC(C)(C)[C@H](NC(=O)C(F)(F)F)C(=O)N1C[C@H]2[C@@H]([C@H]1C(=O)N[C@H](C#N)C[C@@H]1CCNC1=O)C2(C)C` [NMV, Nirmatrelvir], which Ki [4] is on record?
Answer: Its Ki is 3 nM.

Question: With `Cc1c(O)cccc1C(=O)N[C@@H](CSc1ccccc1)[C@H](O)CN1C[C@H]2CCCC[C@H]2C[C@H]1C(=O)NC(C)(C)C` [Nelfinavir] as the compound, how does the “Binding to Mpro (MST), in words” value [3] read?
Answer: The value was “do not bind Mpro effectively”.

Question: For `CC(C)c1nc(CN(C)C(=O)N[C@H](C(=O)N[C@@H](Cc2ccccc2)C[C@H](O)[C@H](Cc2ccccc2)NC(=O)OCc2cncs2)C(C)C)cs1` [RTV, ritonavir], which “Binding to Mpro (MST), in words” value [3] is on record?
Answer: The value was “do not bind Mpro effectively”.
